For 11 compounds, IC50 results are on record in article PMC3761975 (Current drug safety, 2010).

For orientation: pIC50 means the negative decadic logarithm of the IC50, by convention in mol/L.

The test system of data set [1] is CYP3A4. Conditions: cited from earlier work.
Another data set concerns CYP2C9, CYP3A4. In words: in vitro. Particulars: human, pH 7.5.
The target of data set [2] is T1, CYP1A2 (Homo sapiens, UniProt P05177).
T1 sequence (P05177 1-516): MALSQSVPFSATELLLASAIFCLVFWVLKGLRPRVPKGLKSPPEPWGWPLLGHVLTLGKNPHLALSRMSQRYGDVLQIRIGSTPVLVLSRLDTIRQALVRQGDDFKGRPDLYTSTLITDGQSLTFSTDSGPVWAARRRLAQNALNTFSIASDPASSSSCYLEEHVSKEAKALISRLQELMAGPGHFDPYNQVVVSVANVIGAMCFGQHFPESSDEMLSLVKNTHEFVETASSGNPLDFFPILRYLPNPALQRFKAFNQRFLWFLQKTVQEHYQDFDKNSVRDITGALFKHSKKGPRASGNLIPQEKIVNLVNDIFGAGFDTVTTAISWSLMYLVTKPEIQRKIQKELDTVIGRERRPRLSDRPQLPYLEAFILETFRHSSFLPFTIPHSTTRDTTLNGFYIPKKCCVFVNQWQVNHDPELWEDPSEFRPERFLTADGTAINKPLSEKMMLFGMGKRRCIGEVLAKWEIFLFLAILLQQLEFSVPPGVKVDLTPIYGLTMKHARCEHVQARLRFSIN
In words: CYP1A2 fluorometric microtiter plate inhibition assay.

Data set [3] deals with T2, CYP2C9 (Homo sapiens, UniProt P11712). Nature of the data set: CYP2C9 fluorometric microtiter plate inhibition assay.
Data set [4] has as its target T3, CYP2D6 (Homo sapiens, UniProt P10635). Nature of the data set: CYP2D6 fluorometric microtiter plate inhibition assay.
Data set [5] deals with T4, CYP3A4 (Homo sapiens, UniProt P08684). In words: CYP3A4 fluorometric microtiter plate inhibition assay.
Data set [6] relates to CYP1A2, CYP2C9, CYP2D6, CYP3A4. Nature of the data set: CYP isozyme bioassays, results stated across several isozymes. Particulars: human, pH 7.5.
Data set [7] concerns the target T1, CYP1A2. Conditions: recombinant enzyme.
The target in data set [8] is T4, CYP3A4. Particulars: recombinant enzyme.
Data set [9] addresses T2, CYP2C9. Particulars: recombinant enzyme.
In data set [10] the target is T3, CYP2D6. Particulars: recombinant enzyme.
A further data set has as its system CYP 1A2. Particulars: cited from earlier work.
The next data set relates to CYP 2D6. Conditions: read-out: Literature IC50, CYP 2D6; published limits; cited from earlier work.
The subject of a further data set is CYP 2C9. Conditions: read-out: Literature IC50, CYP 2C9; published limits; cited from earlier work.

pIC50: −log10 of the molar value. Read-outs that look alike come from different tables or passages of the source.

T3 sequence (P10635 whole entry): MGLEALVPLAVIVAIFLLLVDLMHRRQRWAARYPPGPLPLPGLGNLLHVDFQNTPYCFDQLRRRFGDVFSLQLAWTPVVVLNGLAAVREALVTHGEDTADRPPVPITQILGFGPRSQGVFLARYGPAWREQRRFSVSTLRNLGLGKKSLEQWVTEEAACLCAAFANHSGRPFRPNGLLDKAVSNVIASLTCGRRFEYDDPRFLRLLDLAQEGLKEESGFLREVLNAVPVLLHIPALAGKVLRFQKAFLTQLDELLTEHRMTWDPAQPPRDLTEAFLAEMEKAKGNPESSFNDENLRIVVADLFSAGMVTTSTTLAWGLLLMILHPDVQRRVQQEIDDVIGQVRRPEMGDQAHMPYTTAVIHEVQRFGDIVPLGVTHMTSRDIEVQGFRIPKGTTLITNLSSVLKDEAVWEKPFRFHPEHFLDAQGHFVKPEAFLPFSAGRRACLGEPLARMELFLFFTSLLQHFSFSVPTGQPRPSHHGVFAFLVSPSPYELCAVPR
T4 sequence (P08684 whole entry): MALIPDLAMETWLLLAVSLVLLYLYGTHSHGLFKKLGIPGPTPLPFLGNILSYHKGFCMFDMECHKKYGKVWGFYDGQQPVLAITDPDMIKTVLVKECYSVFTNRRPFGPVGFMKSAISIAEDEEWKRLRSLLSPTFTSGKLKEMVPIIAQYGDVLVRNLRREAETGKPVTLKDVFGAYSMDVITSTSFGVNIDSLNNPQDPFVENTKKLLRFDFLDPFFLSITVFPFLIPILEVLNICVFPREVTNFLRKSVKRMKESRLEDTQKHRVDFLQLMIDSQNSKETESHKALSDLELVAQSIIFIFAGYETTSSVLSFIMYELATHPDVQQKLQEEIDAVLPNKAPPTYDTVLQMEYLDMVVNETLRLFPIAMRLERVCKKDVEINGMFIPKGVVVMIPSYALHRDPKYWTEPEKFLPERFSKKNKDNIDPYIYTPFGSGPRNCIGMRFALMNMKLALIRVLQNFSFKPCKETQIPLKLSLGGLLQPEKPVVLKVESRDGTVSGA
T2 sequence (P11712 whole entry): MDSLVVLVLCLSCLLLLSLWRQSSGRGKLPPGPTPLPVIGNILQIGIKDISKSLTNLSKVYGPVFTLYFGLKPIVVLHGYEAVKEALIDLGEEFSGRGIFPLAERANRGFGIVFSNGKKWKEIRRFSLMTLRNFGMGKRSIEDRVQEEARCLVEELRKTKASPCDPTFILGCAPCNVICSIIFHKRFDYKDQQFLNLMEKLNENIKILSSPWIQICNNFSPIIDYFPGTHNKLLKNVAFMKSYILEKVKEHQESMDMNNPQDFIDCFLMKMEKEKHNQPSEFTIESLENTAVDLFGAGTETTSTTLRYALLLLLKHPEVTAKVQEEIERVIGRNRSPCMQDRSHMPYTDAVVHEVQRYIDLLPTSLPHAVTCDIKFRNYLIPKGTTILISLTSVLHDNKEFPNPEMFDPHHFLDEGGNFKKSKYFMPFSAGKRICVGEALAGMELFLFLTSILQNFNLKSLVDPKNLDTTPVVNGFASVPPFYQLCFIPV

Turning to `CC(=O)O[C@@H]1C[C@@]23C[C@@]24CC[C@H](O[C@@H]2OC[C@@H](O)[C@H](O)[C@H]2O)C(C)(C)[C@@H]4CC[C@H]3[C@]2(C)C[C@@H]3O[C@]4(C[C@@H](C)[C@@H]3[C@@]12C)OC[C@@]1(C)O[C@@H]41` [26-deoxyactein], the pIC50 in the data set on CYP3A4 [1] (read-out: IC50 for CYP3A4 inhibition, Tsukamoto et al.) is 4.00.
On to `CC(=O)O[C@@H]1C[C@@]23C[C@@]24CC[C@H](O[C@@H]2OC[C@@H](O)[C@H](O)[C@H]2O)C(C)(C)[C@@H]4CC[C@H]3[C@]2(C)C[C@@H]3O[C@]4(C[C@@H](C)[C@@H]3[C@@]12C)O[C@H](O)[C@@]1(C)O[C@@H]41` [Actein, actein], for which the negative-log IC50 (pIC50) in the data set with CYP2C9, CYP3A4 is 4.47 to 4.77; against CYP1A2 [2], below 4.00; against CYP2C9 [3], 4.60; on CYP2D6 [4], 4.29; against CYP3A4 [5], 4.45.
As for `COc1cc(/C=C/C(=O)O[C@H](C(=O)O)[C@](O)(Cc2ccc(O)c(O)c2)C(=O)O)ccc1O` [CAA, Cimicifugic acid A], the pIC50 in data set [6] is 4.90 to 5.74; at CYP1A2 [2], 5.14; at CYP2C9 [3] it was 5.08; at CYP2D6 [4], 5.05; against CYP3A4 [5] it was 5.01.
The like results for `COc1ccc(/C=C/C(=O)O[C@H](C(=O)O)[C@](O)(Cc2ccc(O)c(O)c2)C(=O)O)cc1O` [CAB, Cimicifugic acid B] were, in that order, 4.90 to 5.74, 5.13, 4.90, 4.90 and 5.01.
For the compound `CC(=O)O[C@@H]1C[C@@]23C[C@@]24CC[C@H](O[C@@H]2OC[C@@H](O)[C@H](O)[C@H]2O)C(C)(C)[C@@H]4CC[C@H]3[C@]2(C)C[C@@H]3O[C@@]4(C[C@@H](C)[C@@H]3[C@@]12C)OC[C@@]1(C)O[C@@H]41` [Deoyxactein, 23-epi-26-deoxyactein], the pIC50 at CYP1A2 [7] is below 4.00; on CYP3A4 [8], 4.54; on CYP2C9 [9], 4.59; on CYP2D6 [10], 4.00.
Regarding `O=C(/C=C/c1ccc(O)c(O)c1)O[C@H](C(=O)O)[C@](O)(Cc1ccc(O)c(O)c1)C(=O)O` [Fukinolic acid, fukinolic acid], the pIC50 in data set [6] was 4.90 to 5.74; against CYP1A2 [2], 5.74; at CYP2C9 [3], 5.15; on CYP2D6 [4] it was 5.27; on CYP3A4 [5] it was 5.14.
Regarding `Cc1nc2c([nH]1)c(=O)n(C)c(=O)n2Cc1ccco1` [Furafylline, furafylline], the pIC50 in the data set on CYP 1A2 (read-out: Literature IC50, CYP 1A2, published limits) was […].
With `CC(=O)N1CCN(c2ccc(OCC3COC(Cn4ccnc4)(c4ccc(Cl)cc4Cl)O3)cc2)CC1` (stereo not drawn) [Ketoconazole, ketoconazole], in the data set with CYP3A4 [1] (read-out: Literature IC50, CYP 3A4, published limits), the pIC50 was […].
In the case of `C=C[C@H]1C[N@@]2CC[C@H]1C[C@@H]2[C@@H](O)c1ccnc2ccc(OC)cc12` [Quindine, quinidine], the pIC50 with CYP 2D6 is […].
Turning to `Nc1ccc(S(=O)(=O)Nc2ccnn2-c2ccccc2)cc1` [Sulfaphenazole, sulfaphenazole], in the data set with CYP 2C9, the pIC50 was […].
Regarding `Oc1ccc(/C=C/c2cc(O)cc(O)c2)cc1` [resveratrol], the pIC50 in the data set with CYP 1A2 (read-out: Inhibitory IC50 in CYP 1A2) is 5.72.
